{"source": "patent EP3502102A1", "about": "“STING INHIBITORS” (ECOLE POLYTECHNIQUE FEDERALE DE LAUSANNE (EPFL), priority 2017, dated 2019)", "key": {"[1]": {"system": "mmSTING", "experiment": "Gel-based analysis of C-176-22 labelling (click chemistry, in-gel fluorescence) in HEK293T cells", "type": "binding, mouse", "details": "for labelling of STING mutant: 0.25 µM; for labelling of other protein targets / proteome-wide selectivity: whole cell lysate, C-176-22 0.25µM", "method": "(§1) Reporter activity was measured 16 h after compound treatment. A nonlinear regression analysis was performed. […] Cytokine levels were normalized to DMSO-treated control cells. […] Nuclei were stained with DAPI. […] Depicted genes were measured by RT-qPCR. […] 16 h later Luciferase activity was measured. […] Flag-STING was immunoprecipitated and analysed by autoradiography.\n(§2) HEK293T cells expressing Flag-STING were incubated with C-176-22 (0.25 µM) in serum free media, collected in PBSs and lysed by repetitive freezing and thawing. 43 µl of lysed cells were treated with freshly prepared \"click reagent\" mixture containing tris(benzyltriazolylmethyl)amine (TBTA) (3 µl/sample, 3 mM in 1:4 DMSO:t-ButOH), tetramethylrhodamine (TAMRA) azide (2 µl/sample, 1.25 mM in DMSO), and freshly prepared CuSO4 (1 µl/sample) and tris-(2-carboxyethyl)phosphine hydrochloride (TCEP) (1µl/sample) and incubated at room temperature for 1 h. The reaction was quenched by addition of reducing sample buffer. In-gel fluorescence was visualized using Fusion FX (Vilber Lourmat) and analysed by Fusion capt advance acquisition software.\n(§3) We next sought to elucidate the molecular details of the interaction between C-178 and the TM part of STING. Our SAR studies highlighted the importance of the nitrofuran motif for the activity of the discovered inhibitors. Given the strong electrophilic potential of this group, we suspected that C-178 might react with a TM residue generating a covalent interaction. […] To further test the hypothesis of covalent engagement of STING, we synthesized a derivative of C-176-22, which bears an alkyne group amenable for copper-catalyzed azide alkyne cycloaddition (Click Chemistry) and performed gel-based profiling studies (Fig. 3d). Having verified that C-176-22 is still active (Fig. 7), HEK293T cells expressing STING were exposed to C-176-22, lysed, coupled to a tetramethylrhodamine (TAMRA-)azide tag and C-176-22-modified proteins were visualized using in-gel fluorescence scanning. HEK293T cells without STING served as a control for assessing non-specific protein labelling. […] Based on the observed mass shift, we postulate a nitrobenzyl rearrangement-like reaction to generate covalent bonding between C-178 and STING (see below). […] We next sought to identify the residue through which C-178 achieves binding to STING. Among the naturally occurring amino acids, cysteine residues are well-known targets of electrophilic small molecules. […] In addition, binding to and inhibition of STING are two separable functions of C-178."}, "[2]": {"target": "T1, mmSTING (Mus musculus, UniProt Q3TBT3, V27A)", "T1 construct": "expressed in transfected cells; host or cells: HEK293T (lentiviral transduction, induced overnight)", "T1 sequence (Q3TBT3 1-378 V27A)": "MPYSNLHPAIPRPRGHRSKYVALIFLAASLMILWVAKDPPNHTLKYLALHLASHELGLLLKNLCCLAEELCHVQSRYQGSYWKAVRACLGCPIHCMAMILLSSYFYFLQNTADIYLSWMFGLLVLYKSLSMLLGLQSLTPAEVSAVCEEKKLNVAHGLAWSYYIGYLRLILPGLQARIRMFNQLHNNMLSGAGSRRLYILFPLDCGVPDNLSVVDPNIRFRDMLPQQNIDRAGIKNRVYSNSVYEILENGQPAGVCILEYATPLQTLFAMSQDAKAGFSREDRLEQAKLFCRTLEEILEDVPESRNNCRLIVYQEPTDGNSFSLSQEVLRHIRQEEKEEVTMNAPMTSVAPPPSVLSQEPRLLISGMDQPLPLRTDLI", "experiment": "Gel-based analysis of C-176-22 labelling (click chemistry, in-gel fluorescence) in HEK293T cells", "type": "binding", "details": "STING V27A; 0.25 µM", "method": "as §1, §2, §3"}, "[3]": {"target": "T2, mmSTING (Mus musculus, UniProt Q3TBT3)", "T2 construct": "expressed in transfected cells; host or cells: HEK293T (lentiviral transduction, induced overnight)", "T2 sequence (Q3TBT3 1-378)": "T1 sequence (Q3TBT3 1-378 V27A) with A27V", "experiment": "Gel-based analysis of C-176-22 labelling (click chemistry, in-gel fluorescence) in HEK293T cells", "type": "binding", "details": "HEK293T expressing STING", "method": "as §1, §2, §3"}, "[4]": {"target": "T3, STING (Mus musculus, UniProt Q3TBT3)", "T3 sequence (Q3TBT3 1-378)": "T1 sequence (Q3TBT3 1-378 V27A) with A27V", "experiment": "IFN-beta luciferase reporter in HEK293T cells transfected with STING, alone or with a cyclic dinucleotide synthase", "type": "cell-based", "parameters": "expressed in transfected cells; host or cells: HEK293T", "details": "HEK293T transfected with mmSTING, 16 h", "method": "as §1\nHEK293T cells expressing murine STING with an N-terminal mCherry-tag ^28 were transfected using GeneJuice (Millipore) with a construct encoding for cyclic di-GMP synthase in conjunction with an IFN-• firefly luciferase reporter plasmid. 3 h after transfection cells were seeded in […] (Corning) coated with library compounds. For each compounds, a 40 nl volume was selected to obtain a concentration of 10 µM in the assay plates. The amount of DMSO in each well was normalised to 0.1%. After overnight treatment, cells were lysed in lysis buffer (25 mM Tris-phosphate (pH 7.8), 2 mM DTT, 2 mM 1,2-diaminocyclohexane-N,N,N',N'-tetraacetic acid, 10% glycerol, 1% Triton® X-100) for 20 min followed by the addition of firefly luciferase. Reporter activity was measured using a Tecan Infinite plate reader. The screen was performed using on ∼ 20.000 compounds from a chemically diverse compound collection available at the BSF core facility at EPFL.\nIn these cells, transient transfection of vectors encoding for cyclic di-GMP synthase (cdG-Syn) and an IFN-• reporter leads to robust induction of firefly luciferase activity. We used this system to perform a high-throughput chemical screen with a library of ∼ 20.000 small molecule compounds (Fig. 6b). To increase the selectivity of candidate compounds against the STING pathway, hits from the primary screen were counter-screened for their effect on RIG-I-driven activation of the IFN-• reporter. […] To further validate the two small molecules, we treated wild-type HEK293T cells with C-178 and C-176, in which STING was either expressed alone or in conjunction with cdG-Syn. […] We next conducted a limited structure-activity relationship (SAR) analysis. Since both C-178 and C-176 share a characteristic nitrofuran moiety, we prepared analogues of C-176/8 in which this structural motif was substituted (Fig. 1c)."}, "[5]": {"target": "T4, hsSTING (Homo sapiens, UniProt Q86WV6)", "T4 construct": "expressed in transfected cells; host or cells: HEK293T", "T4 sequence (Q86WV6 whole entry)": "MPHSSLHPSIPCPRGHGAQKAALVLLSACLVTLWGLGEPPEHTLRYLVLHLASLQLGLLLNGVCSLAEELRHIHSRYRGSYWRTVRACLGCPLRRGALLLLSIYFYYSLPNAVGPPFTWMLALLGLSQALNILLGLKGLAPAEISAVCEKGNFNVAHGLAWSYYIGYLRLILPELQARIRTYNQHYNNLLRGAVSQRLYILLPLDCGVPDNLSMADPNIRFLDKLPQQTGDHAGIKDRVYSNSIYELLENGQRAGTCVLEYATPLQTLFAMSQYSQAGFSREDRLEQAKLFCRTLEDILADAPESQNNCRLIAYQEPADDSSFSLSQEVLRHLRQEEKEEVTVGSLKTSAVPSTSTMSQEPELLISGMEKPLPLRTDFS", "experiment": "Gel-based analysis of C-176-22 labelling in HEK293T cells expressing human STING", "type": "binding", "details": "HEK293T cells that expressed human STING", "method": "as §1\nHEK293T cells expressing Flag-STING were incubated with C-176-22 (0.25 µM) in serum free media, collected in PBSs and lysed by repetitive freezing and thawing. […] In-gel fluorescence was visualized using Fusion FX (Vilber Lourmat) and analysed by Fusion capt advance acquisition software.\nWe next sought to elucidate the molecular details of the interaction between C-178 and the TM part of STING. […] Having verified that C-176-22 is still active (Fig. 7), HEK293T cells expressing STING were exposed to C-176-22, lysed, coupled to a tetramethylrhodamine (TAMRA-)azide tag and C-176-22-modified proteins were visualized using in-gel fluorescence scanning. […]"}}, "note": "Residue numbers refer to the chain shown, from its start."}
{"compound": "C#Cc1ccc(NC(=O)c2ccc([N+](=O)[O-])o2)cc1", "note": "[C-176-22]", "values": [{"measurement": "labelling band in cells without STING", "setting": "[1]; HEK293T cells that lacked STING expression", "value": "not detectable"}, {"measurement": "labelling of STING mutant", "setting": "[1]; cysteine-to-alanine or cysteine-to-serine mutation at position 91", "value": "completely abolished"}, {"measurement": "labelling of STING mutant", "setting": "[1]; mutated C88", "value": "did not influence"}, {"measurement": "labelling of other protein targets / proteome-wide selectivity", "setting": "[1]", "value": "negligible labelling"}, {"measurement": "labelling of other protein targets / proteome-wide selectivity", "setting": "[1]; listed as C176L", "value": "highly specifically labels mmSTING"}, {"measurement": "labelling of STING mutant", "setting": "[2]", "value": "efficiently interacted"}, {"measurement": "labelling of STING, in-gel fluorescence signal (37 kDa)", "setting": "[3]", "value": "marked, dose-dependent signal"}, {"measurement": "inhibitory activity, IFN-• luciferase reporter", "setting": "[4]", "value": "still active"}, {"measurement": "inhibitory activity, IFN-• luciferase reporter", "setting": "[4]; listed as C176L", "value": "inhibitory active"}, {"measurement": "labelling of human STING", "setting": "[5]", "value": "hardly detectable, if at all"}]}
